Assay results taken from article PMC5344125 (Nano letters, 2016).

Test system: LS174T secreted proteases
Assay: Secreted protease activity assay with conditioned supernatant
Type: biochemical, human
Conditions: fluorescently quenched substrates, MMP inhibitor added

## CNC(=O)[C@@H](NC(=O)[C@H](CC(C)C)[C@H](O)C(=O)NO)C(C)(C)C [Marimastat]
  in vitro proteolysis of substrates in the presence of Marimastat: abrogated
